Assay [1] concerns zymostenol accumulation (EBP) in EpiSC-derived OPCs. As to the kind of experiment: GC/MS-based sterol profiling, zymostenol accumulation in EpiSC-derived OPCs. Format: cell-based, mouse. The note with it: for EC50: Mus musculus, 24 h, EpiSC-derived OPCs, 24 hr, 8 doses from 0.15 nM to 333 nM, read-out: Mouse Zymostenol GCMS EC50. A digest of the protocol:
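Mouse epiblast stem cell-derived OPCs plated at 100,000 cells/well in growth-factor-free N2B27 and treated 24 h. Sterols extracted by modified Folch wash, silylated with BSTFA, and quantified by electron-impact GC/MS against cholesterol-d7 (zymostenol ion 458). Zymostenol normalised to 24 h 100 nM positive-control reference.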

Assay [2] concerns the target human emopamil binding protein and human 7-dehydrocholesterol reductase (hEBP-DHCR7) (Homo sapiens (Human), UniProt Q15125). The assay is described as follows: hEBP-DHCR7 radioligand binding assay (filter binding, membranes of co-expressing HEK293 cells). The note with it: competition with [3H] radioligand, 8 doses 0.06 to 5000 nM, Ki calculated from IC50. A digest of the protocol:
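Membranes from HEK293 cells transiently co-expressing hEBP and DHCR7 (10 μg/well) were incubated for 3 h at 22 °C with tritiated spiro-sulfone radioligand (added at 25 nM) and compound at 1 μM or 0.06–5000 nM. Filtration and scintillation counting followed. Inhibition was normalised to 5 μM unlabelled ligand and DMSO, and Ki was derived as IC50/(1+[L]/Kd).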

For another assay, the system named is EpiSC-derived OPCs. The assay is described as follows: In vitro phenotypic screening of OPCs, MBP high-content imaging (percentage of oligodendrocytes). The note with it: for EC50: Mus musculus, 72 h, 3 days, MBP stain, dose-response 0.5 nM to 1000 nM, read-out: OPC EC50. The class given is cell-based, mouse. The method, then:
To assess effects of treatments on OPCs, all treatments were assayed in two or more independent platings of epiblast stem cell-derived OPCs (EpiSC). EpiSC-derived OPCs were obtained using in vitro differentiation protocols and culture conditions described previously (Najm et al, 2011, Nature Methods). OPCs were expanded and frozen down in aliquots. OPCs were thawed into growth conditions for at least one passage before use in further assays.
EpiSC-derived OPCs were grown and expanded in poly-L-ornithine (PO) and laminin-coated flasks in N2B27 media (DMEM/F12 (Gibco), N2-MAX (R&D Systems), B-27 (ThermoFisher), and GlutaMax (Gibco)) supplemented with FGF2 (10 μg/mL, R&D systems, 233-FB-025) and PDGF-AA (10 μg/mL, R&D systems, 233-AA-050) before harvesting for experiments. The cells were seeded onto poly-L-ornithine or poly-D-lysine coated CellCarrier Ultra plates (PerkinElmer) coated with laminin (Sigma, L2020) at a density of 150,000/cm^2 in N2B27 media without growth factors. For dose-response testing, a 1000× compound stock in dimethyl sulphoxide (DMSO) was added to assay plates, resulting in 8-point dose curves with final concentrations between 1000 nM and 0.5 nM. Positive controls and DMSO vehicle controls were included in each assay plate. Cells were incubated under standard conditions (37° C., 5% CO2) for 3 days and fixed with 4% paraformaldehyde (PFA) in phosphate buffered saline (PBS) for 20 min. Fixed plates were washed with PBS, permeabilized with 0.1% Triton X-100, and blocked with 10% donkey serum (v/v) in PBS for 40 min. Then, cells were labelled with MBP antibodies (Abcam, ab7349; 1:200) for 2 h at room temperature, washed with PBS, and stained with Alexa Fluor conjugated secondary antibodies (1:500) for 45 min. Nuclei were visualized by DAPI staining (Sigma; […]), followed by further PBS washes.
Cells and cell culture plates were imaged on the Operetta High Content Imaging and Analysis system (PerkinElmer). Analysis (PerkinElmer Harmony and Columbus software) began by identifying intact nuclei stained by DAPI. The peri-nuclear region of each cell was then cross-referenced with the mature myelin protein (MBP) stain to identify oligodendrocyte nuclei, and from this the percentage of oligodendrocytes was calculated. EC50 values were calculated using The Levenberg-Marquardt algorithm to fit a Hill equation to dose-response data (0.5 nM to 1000 nM).

human emopamil binding protein and human 7-dehydrocholesterol reductase (hEBP-DHCR7), sequence (Q15125 whole entry): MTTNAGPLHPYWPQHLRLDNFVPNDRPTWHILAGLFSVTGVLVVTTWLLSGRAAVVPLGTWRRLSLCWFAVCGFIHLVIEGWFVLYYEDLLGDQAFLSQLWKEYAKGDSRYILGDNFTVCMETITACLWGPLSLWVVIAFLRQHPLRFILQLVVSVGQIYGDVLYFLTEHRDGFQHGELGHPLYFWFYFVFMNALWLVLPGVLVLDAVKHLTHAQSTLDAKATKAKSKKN

For orientation: EC50 means the concentration needed to bring the measured effect to its halfway point. Usually Ki stands for the equilibrium dissociation constant of an inhibitor or competing ligand from its target. Turning to `CCn1nc(-c2ccc(C(F)(F)F)nc2)nc1[C@H]1CC[C@@H](N2CCCOCC2)CC1` [7*, 4-((1s,4s)-4-(1-ethyl-3-(6-(trifluoromethyl)pyridin-3-yl)-1H-1,2,4-triazol-5-yl)cyclohexyl)-1,4-oxazepane], the EC50 came to 26.3 nM in assay [1] and 158 nM with EpiSC-derived OPCs. Besides, the inhibitory constant (Ki) in assay [2] is 135 nM.

In the case of `CC(C)n1nc(-c2cnc(N)c(C(F)(F)F)c2)cc1[C@H]1[C@@H]2C[C@H](N3CCOCC3)C[C@@H]21` [Compound B, reference compound], in the assay with EpiSC-derived OPCs, the EC50 turned out to be 692 nM. Besides, the “fold decrease in activity in the OPC assay” value in the assay with EpiSC-derived OPCs (as compared to compound 171) worked out at 41.7 fold.

Take `CC(C)n1nc(-c2ccc(C(F)(F)F)nc2)nc1[C@@H]1CC[C@H](N2CCOCC2)C1` [Compound 105, 4-((1S,3R)-3-(1-Isopropyl-3-(6-(trifluoromethyl)pyridin-3-yl)-1H-1,2,4-triazol-5-yl)cyclopentyl)morpholine]: the 50% effective concentration (EC50) in assay [1] came out at 3.15 nM; in the assay on EpiSC-derived OPCs it was 11.7 nM. In assay [2], the inhibition constant Ki is 8.89 nM.

Turning to `CCn1nc(-c2cncc(C(F)(F)F)c2)cc1[C@H]1[C@@H]2C[C@H](N3CCCOCC3)C[C@@H]21` [Compound 54, 4-((1R,3r,5S,6r)-6-(1-ethyl-3-(5-(trifluoromethyl)pyridin-3-yl)-1H-pyrazol-5-yl)bicyclo[3.1.0]hexan-3-yl)-1,4-oxazepane], the concentration for a half-maximal effect (EC50) was determined as 3 nM in assay [1] and 12.4 nM with EpiSC-derived OPCs. Moreover, the Ki in assay [2] was 10.6 nM.

For the molecule `CC[C@@H]1CN([C@@H]2CC[C@H](c3nc(-c4ccc(C(F)(F)F)nc4)nn3C(C)C)C2)CCO1` [Compound 127, (R)-2-Ethyl-4-((1R,3S)-3-(1-isopropyl-3-(6-(trifluoromethyl)pyridin-3-yl)-1H-1,2,4-triazol-5-yl)cyclopentyl)morpholine], the EC50 in assay [1] came out at 1.32 nM; in the assay on EpiSC-derived OPCs, 6 nM. Moreover, the inhibitory constant (Ki) in assay [2] is 57.1 nM.

As to `CC(C)n1nc(-c2cnc(N)c(C(F)(F)F)c2)cc1[C@H]1[C@@H]2C[C@H](N3CCCOCC3)C[C@@H]21` [Compound C, reference compound], the concentration giving a half-maximal response (EC50) in assay [1] stood at 15.6 nM; in the assay on EpiSC-derived OPCs, 75 nM. The “fold decrease in activity in the mouse zymostenol assay” value in assay [1] (as compared to compound 29*) is recorded as 4.9 fold. Further, in the assay with EpiSC-derived OPCs (as compared to compound 29*), the “fold decrease in activity in the OPC assay” value was 3.8 fold.

For `CC(C)n1nc(-c2ccc(C(F)(F)F)nc2)nc1[C@H]1[C@@H]2C[C@H](N3CCCOCC3)C[C@@H]21` [Compound 15, 4-((1R,3r,5S,6r)-6-(1-isopropyl-3-(6-(trifluoromethyl)pyridin-3-yl)-1H-1,2,4-triazol-5-yl)bicyclo[3.1.0]hexan-3-yl)-1,4-oxazepane], the concentration for a half-maximal effect (EC50) in assay [1] is 5.98 nM; in the assay on EpiSC-derived OPCs, 22.4 nM.

As to `CC(C)n1nc(-c2cccc(OC(F)(F)F)c2)nc1[C@H]1[C@@H]2C[C@@H](N3CCCOCC3)C[C@@H]21` [Compound 18, 4-((1R,3s,5S,6r)-6-(1-isopropyl-3-(3-(trifluoromethoxy)phenyl)-1H-1,2,4-triazol-5-yl)bicyclo[3.1.0]hexan-3-yl)-1,4-oxazepane], the EC50 in assay [1] worked out at 52.8 nM; in the assay with EpiSC-derived OPCs, 78.5 nM.

On to `CC(C)n1nc(-c2cccc(OC(F)(F)F)c2)nc1[C@H]1[C@@H]2C[C@H](N3CCCOCC3)C[C@@H]21` [Compound 17, 4-((1R,3r,5S,6r)-6-(1-isopropyl-3-(3-(trifluoromethoxy)phenyl)-1H-1,2,4-triazol-5-yl)bicyclo[3.1.0]hexan-3-yl)-1,4-oxazepane], for which the concentration giving a half-maximal response (EC50) came to 1.74 nM in assay [1] and 4.16 nM in the assay with EpiSC-derived OPCs.

Consider `CC(C)n1nc(-c2cccc(C(F)(F)F)c2)nc1[C@H]1[C@@H]2C[C@@H](N3CCOCC3)C[C@@H]21` [20*, 4-((1R,3s,5S,6r)-6-(1-isopropyl-3-(3-(trifluoromethyl)phenyl)-1H-1,2,4-triazol-5-yl)bicyclo[3.1.0]hexan-3-yl)morpholine], for which the values for the 50% effective concentration (EC50) (in assay [1]; in the assay with EpiSC-derived OPCs) were 64 nM and 232 nM, respectively.

Turning to `CC(C)n1nc(-c2ccc(C(F)(F)F)cn2)cc1[C@H]1[C@@H]2C[C@H](N3CCOCC3)C[C@@H]21` [Compound 174, 4-((1R,3r,5S,6r)-6-(1-Isopropyl-3-(5-(trifluoromethyl)pyridin-2-yl)-1H-pyrazol-5-yl)bicyclo[3.1.0]hexan-3-yl)morpholine], the EC50 in assay [1] is 7.51 nM; in the assay with EpiSC-derived OPCs, 35 nM.

Regarding `CC(C)n1nc(-c2ccc(C(F)(F)F)nc2)nc1[C@H]1[C@@H]2C[C@@H](N3CCCOCC3)C[C@@H]21` [Compound 16, 4-((1R,3s,5S,6r)-6-(1-isopropyl-3-(6-(trifluoromethyl)pyridin-3-yl)-1H-1,2,4-triazol-5-yl)bicyclo[3.1.0]hexan-3-yl)-1,4-oxazepane], the EC50 in assay [1] worked out at 203 nM; in the assay on EpiSC-derived OPCs it was 333 nM.

On to `CC(C)n1nc(-c2cc(C(F)(F)F)ncn2)cc1[C@H]1[C@@H]2C[C@@H](N3CCOC[C@H]3C)C[C@@H]21` [Compound 202, (R)-4-((1R,3s,5S,6R)-6-(1-isopropyl-3-(6-(trifluoromethyl)pyrimidin-4-yl)-1H-pyrazol-5-yl)bicyclo[3.1.0]hexan-3-yl)-3-methylmorpholine], for which the concentration giving a half-maximal response (EC50) in assay [1] came out at 4.76 nM; in the assay on EpiSC-derived OPCs, 21.6 nM.

For the molecule `CC(C)n1nc(-c2cccc(C(F)(F)F)c2)nc1[C@H]1[C@@H]2C[C@H](N3CCCOCC3)C[C@@H]21` [Compound 13, 4-((1R,3r,5S,6r)-6-(1-isopropyl-3-(3-(trifluoromethyl)phenyl)-1H-1,2,4-triazol-5-yl)bicyclo[3.1.0]hexan-3-yl)-1,4-oxazepane], the EC50 in assay [1] came to 1.48 nM; in the assay on EpiSC-derived OPCs it was 3.18 nM.

As for `CC(C)n1nc(-c2cncc(C(F)(F)F)c2)cc1[C@H]1[C@@H]2C[C@@H](N3CCOCC3)C[C@@H]21` [Cmpd 202], the half-maximal effective concentration (EC50) is 236 nM in assay [1] and 723 nM in the assay with EpiSC-derived OPCs.

Turning to `CC(C)n1nc(-c2cncc(C(F)(F)F)c2)cc1[C@H]1[C@@H]2C[C@H](N3CCOCC3)C[C@@H]21` [Compound 171, 4-((1R,3r,5S,6r)-6-(1-Isopropyl-3-(5-(trifluoromethyl)pyridin-3-yl)-1H-pyrazol-5-yl)bicyclo[3.1.0]hexan-3-yl)morpholine], the 50% effective concentration (EC50) was 5.88 nM in assay [1] and 16.6 nM in the assay on EpiSC-derived OPCs.

For the molecule `CC(C)n1nc(-c2cccc(C(F)(F)F)c2)nc1[C@H]1[C@@H]2C[C@@H](N3CCCOCC3)C[C@@H]21` [Compound 14, 4-((1R,3s,5S,6r)-6-(1-isopropyl-3-(3-(trifluoromethyl)phenyl)-1H-1,2,4-triazol-5-yl)bicyclo[3.1.0]hexan-3-yl)-1,4-oxazepane], the EC50 in assay [1] worked out at 40.2 nM; in the assay with EpiSC-derived OPCs, 81.3 nM.

Turning to `CC(C)n1nc(-c2cncc(C(F)(F)F)c2)cc1[C@@H]1CC[C@@H](N2CCOCC2)C1` (single isomer, unassigned) [59*], in assay [1], the EC50 turned out to be 19.2 nM. Moreover, in assay [2], the inhibition constant Ki was 73.4 nM.

Take `CC[C@H]1CN([C@@H]2CC[C@H](c3nc(-c4ccc(C(F)(F)F)nc4)nn3C(C)C)C2)CCO1` [Compound 128, (S)-2-Ethyl-4-((1R,3S)-3-(1-isopropyl-3-(6-(trifluoromethyl)pyridin-3-yl)-1H-1,2,4-triazol-5-yl)cyclopentyl)morpholine]: the EC50 in assay [1] was 16.6 nM. Further, the Ki in assay [2] was 118 nM.

Regarding `CC(C)n1nc(-c2ccc(C(F)(F)F)nc2)cc1[C@@H]1CC[C@@H](N2CCN(CCO)CC2)C1` (single isomer, unassigned) [86*], in assay [1], the concentration for a half-maximal effect (EC50) amounted to 28.7 nM. Also, the Ki in assay [2] is 31.2 nM.

For `CC(C)n1nc(-c2cccc(C(F)(F)F)n2)nc1[C@@H]1CCC(N2CCOCC2)C1` (stereo in doubt) [25*, 4-((1R,3R)-3-(1-isopropyl-3-(6-(trifluoromethyl)pyridin-2-yl)-1H-1,2,4-triazol-5-yl)cyclopentyl)morpholine], the EC50 in assay [1] was 234 nM; in the assay with EpiSC-derived OPCs, 65.5 nM.
